For assay [1], the system named is mice fed with WD. Particulars: WD 8 weeks then DHT 3 weeks under WD vs WD alone 11 weeks; FIG. 5.
The subject of assay [2] is prolow-density lipoprotein-related protein 1. The following applies: DHT with WD vs WD alone. As for the experimental part: (§1) FIG. 1A depicts a representative illustration of the experimental system used to study the effects of DHT on metabolism. Mice were fed with a Western diet (WD). At 45 days of age, one group of mice were administered DHT via pellet at Week 0 and at Week 4-5 (WD+DHT). One group of WD fed mice were not administered with DHT (WD). Mice were euthanized at Week 8. Ex vivo lipolysis, histology and molecular studies were performed.

In assay [3] the test system is regucalcin. Particulars: WD+DHT vs WD mice. The procedure:
as §1

The subject of assay [4] is female mice fed with a Western diet. As for the experimental part: as §1

Turning to `C[C@]12CCC(=O)C[C@@H]1CC[C@@H]1[C@@H]2CC[C@]2(C)[C@@H](O)CC[C@@H]12` [DHT, dihydrotestosterone], the liver triglyceride entry in assay [1] is given as “lower triglyceride”. Further, the “prolow-density lipoprotein-related protein 1 in liver” value in assay [2] is on record as “significantly altered”. Besides, the regucalcin in liver result in assay [3] is recorded as “significantly altered”. In addition, in assay [4] (DHT with WD mice), the “brown adipose cell size (histology)” value is “enlarged”. For the same molecule, the “triglyceride (TG) in circulation” value in assay [4] (WD+DHT vs WD mice) is recorded as “Significantly elevated levels”. The “fat in liver (liver images)” value in assay [4] (WD+DHT vs WD mice, FIG. 1C) was “lower levels of fat”. Besides, the liver triglyceride level result in assay [4] (WD+DHT vs WD mice, FIG. 2A) is “lower levels”. Moreover, the liver cholesterol level entry in assay [4] (WD+DHT vs WD mice, FIG. 2B) is listed as “lower levels”. Moreover, in assay [4] (WD+DHT vs WD mice, FIG. 4), the “liver lipid deposition (oil red and H&E staining, histology)” value is listed as “decreased lipid deposition”. Besides, the glucose tolerance result in assay [4] (at 3 weeks, DHT with WD vs WD alone, adult female mice) is listed as “more impaired glucose intolerance”. Besides, the pyruvate tolerance entry in assay [4] (at 6-7 weeks, DHT with WD vs WD alone, adult female mice) is reported as “more impaired pyruvate tolerance”.
